Experimental data reported in patent US7767658B2 (priority 2003, dated 2010).

Experiments:
[1] = test system: spleen cells stimulated with the whole inactivated virus; type: in vivo, BALB/c mice; details: after stimulation with inactivated virus; mice given ethyl DOPC in addition to the antigen
[2] = test system: spleen cells secreting γ-interferon; type: in vivo, BALB/c mice; details: after restimulation with inactivated SARS virus; in response to some of the peptides used

How did the “production of IL-5 (in words)” value [1] turn out when `CCCCCCCC/C=C\CCCCCCCC(=O)OC[C@@H](COP(=O)(OCC)OCC[N+](C)(C)C)OC(=O)CCCCCCC/C=C\CCCCCCCC` (stereo partly drawn) [ethyl DOPC, 1,2-dioleoyl-sn-glycero-3-ethylphosphocholine] was run?
Its value is “not clearly modified”.

And the “production of γ-IFN (in words)” value [1]?
The value was “considerably increased”.

And the “production of γ-interferon (ELISPOT after restimulation)” value [2]?
Its value is “increased”.
